Experimental data published in ChEMBL document CHEMBL1201862, “PubChem BioAssay data set” (2004).
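Assay format: 96-well plates, 48-hour exposure. GI50 is the concentration that inhibits growth by half.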 The source made the active and inactive calls. No stated cut-off is given here; in the data, active = GI50 up to about 1.1 µM and inactive = higher.

Legend:
Test in all cases: growth of human tumour cells (NCI), 48 h
[1] = test system: 786-0
[2] = test system: A549
[3] = test system: ACHN
[4] = test system: BT-549
[5] = test system: CCRF-CEM
[6] = test system: COLO 205
[7] = test system: DU-145
[8] = test system: EKVX
[9] = test system: HCC 2998
[10] = test system: HCT-116
[11] = test system: HCT-15
[12] = test system: HL-60
[13] = test system: HOP-92
[14] = test system: HT-29
[15] = test system: Hs-578T
[16] = test system: K562
[17] = test system: KM12
[18] = test system: LOX IMVI
[19] = test system: M14
[20] = test system: MCF7
[21] = test system: MDA-MB-231
[22] = test system: MDA-MB-435
[23] = test system: MDA-N
[24] = test system: MOLT-4
[25] = test system: Malme-3M
[26] = test system: NCI-H226
[27] = test system: NCI-H23
[28] = test system: NCI-H460
[29] = test system: NCI-H522
[30] = test system: NCI/ADR-RES
[31] = test system: OVCAR-3
[32] = test system: OVCAR-5
[33] = test system: OVCAR-8
[34] = test system: PC-3
[35] = test system: SF-268
[36] = test system: SF-295
[37] = test system: SF-539
[38] = test system: SK-MEL-28
[39] = test system: SK-MEL-2
[40] = test system: SK-MEL-5
[41] = test system: SK-OV-3
[42] = test system: SN12C
[43] = test system: SNB-19
[44] = test system: SNB-75
[45] = test system: SR
[46] = test system: SW-620
[47] = test system: T47D
[48] = test system: TK-10
[49] = test system: U-251
[50] = test system: UACC-257
[51] = test system: UACC-62
[52] = test system: UO-31

Structure (SMILES): O=C1CS(=O)(=O)C(c2cccc(Oc3ccccc3)c2)N1c1cc(Cl)ccc1Cl (configuration not stated)
- GI50 [1]: 19.2 µM (inactive)
- GI50 [2]: 38.2 µM (inactive)
- GI50 [3]: 19.7 µM (inactive)
- GI50 [4]: 19 µM (inactive)
- GI50 [5]: 15.4 µM (inactive)
- GI50 [6]: 30.2 µM (inactive)
- GI50 [7]: 17.9 µM (inactive)
- GI50 [8]: 35.2 µM (inactive)
- GI50 [9]: 18.8 µM (inactive)
- GI50 [10]: 20.2 µM (inactive)
- GI50 [11]: 24.9 µM
- GI50 [12]: 34.2 µM (inactive)
- GI50 [13]: 18.2 µM (inactive)
- GI50 [14]: 20 µM (inactive)
- GI50 [15]: 33.3 µM (inactive)
- GI50 [16]: 27.4 µM (inactive)
- GI50 [17]: 17.8 µM (inactive)
- GI50 [18]: 14 µM (inactive)
- GI50 [19]: 20.4 µM (inactive)
- GI50 [20]: 16.1 µM (inactive)
- GI50 [21]: 17.5 µM (inactive)
- GI50 [22]: 12.1 µM (inactive)
- GI50 [23]: 16.7 µM (inactive)
- GI50 [24]: 39.3 µM (inactive)
- GI50 [25]: 47 µM (inactive)
- GI50 [26]: 19.2 µM (inactive)
- GI50 [27]: 29.1 µM (inactive)
- GI50 [28]: 21.9 µM (inactive)
- GI50 [29]: 23.7 µM (inactive)
- GI50 [30]: 25.7 µM (inactive)
- GI50 [31]: 19 µM (inactive)
- GI50 [32]: 29.6 µM (inactive)
- GI50 [33]: 19.8 µM (inactive)
- GI50 [34]: 14.7 µM (inactive)
- GI50 [35]: 23.1 µM (inactive)
- GI50 [36]: 22.9 µM (inactive)
- GI50 [37]: 21 µM (inactive)
- GI50 [38]: 26.5 µM (inactive)
- GI50 [39]: 14.4 µM (inactive)
- GI50 [40]: 15.8 µM (inactive)
- GI50 [41]: 24 µM (inactive)
- GI50 [42]: 20.7 µM (inactive)
- GI50 [43]: 22.4 µM (inactive)
- GI50 [44]: 14.6 µM (inactive)
- GI50 [45]: 16.8 µM (inactive)
- GI50 [46]: 34.4 µM (inactive)
- GI50 [47]: 15.6 µM (inactive)
- GI50 [48]: 30.1 µM (inactive)
- GI50 [49]: 15.7 µM (inactive)
- GI50 [50]: 23.1 µM (inactive)
- GI50 [51]: 15.5 µM (inactive)
- GI50 [52]: 20.1 µM (inactive)
